Results: patent US10525079B2, “Pharmaceutical composition for preventing or treating breast cancer including crystalline polymorph of tetraarsenic hexoxide, and method for producing same” (CHEMAS CO., LTD., priority 2016, dated 2020)

Key:
[1] = test system: cyclin A2; experiment: RT-PCR mRNA expression of cyclin A2 in MCF-7 cells; assay type: cell-based, human; details: 0-15 μM, 24 hours, with increase in concentration
Experimental: (§1) Fetal bovine serum (FBS) and cell culture medium were prepared (Hyclone). RT-PCR Kit and Trizol were obtained from Takara Biotechnology CO., LTD., and Annexin V-FITC was obtained from Shanghai Biyuntian Biological Technology Co., LTD. Primers were designed and synthesized by Beijing Aodingkangsheng Biological Technology Co., LTD.
(§2) Human breast cancer cells MCF-7, as a human cancer cell line, were obtained from the Shanghai Cell Bank of Chinese Academy of Sciences. MCF-7 cells were incubated in Minimum Essential media (MEM) supplemented with 10% FBS, 100 U/ml penicillin, and 100 μg/m streptomycin in a humidified incubator with 5% CO2 and 95% air. The media were exchanged every three days.
(§3) In order to investigate the effect of Example 1 on the induction of cell apoptosis, mRNA expression levels of caspase-3, p21, cyclin E1, and cyclin A2, which are genes involved in cell cycle and apoptosis, were examined by RT-PCR. The cells were dispensed at 1×10^5 cells/well in a 6-well culture dish, and incubated for 24 hours. After 24 hours, the cells contained in the MEM containing 10% FBS were treated with Example 1 at 0, 1, 3, 6, 9, 12 or 15 μM, and incubated for 24 hours. After 24 hours, the cells were collected, and then RNA was extracted using Trizol reagent. […]

[2] = test system: cyclin E1; experiment: RT-PCR mRNA expression of cyclin E1 in MCF-7 cells; assay type: cell-based, human; details: 0-15 μM, 24 hours, with increase in concentration
Experimental: as §1, §2, §3

[3] = test system: human breast cancer cells, MDA-MB-231; experiment: Breast cancer metastasis inhibitory effect in nude mice transplanted with MDA-MB-231; assay type: in vivo, babl/c-nu male nude mice; details: MDA-MB-231 subcutaneous, oral 4.5 mg/kg for 7 days; for percentage of inhibition of cancer cell metastasis: cancer cells spread to the lungs counted; for spreading of the breast cancer cells to the lungs: versus untreated control
Experimental: The nude mice were allowed free access to food and water, and were bred in a 12-hr light/12-hr dark cycle for 7 days.
The mice were transplanted with human breast cancer cells, MDA-MB-231, through subcutaneous injection, and bred for 7 days. After 7 days, the mice were randomly divided, and then respective mice were orally administered with the compositions of Example 1 and Comparative Example 1 at 4.5 mg/kg for 7 days. Here, the mice treated with nothing after the transplantation of breast cancer cells were used as a control group. After 7 days of administration of the compositions, lung tissues were taken from the mice, and then cancer cells spread to the lungs were counted to compare the degree of inhibition of breast cancer metastasis.

[4] = test system: p21; experiment: RT-PCR mRNA expression of p21 in MCF-7 cells; assay type: cell-based, human; details: 0-15 μM, 24 hours, with increase in concentration
Experimental: as §1, §2, §3

[5] = test system: metastatic breast cancer; experiment: Clinical test in a patient with metastatic breast cancer (CT images of the lungs); assay type: in vivo, human; details: oral 5 mg three times a day (15 mg/day), after 8, 13, 17 and 22 months of administration
Experimental: The following clinical test was conducted using the composition of Example 1.
The patient received hospital treatments and folk remedies since breast cancer was found in 2006, but the breast cancer was metastasized to the lungs, pleura, bones, and liver. In May 2014, pleural effusion and peritoneal fluid collection were found, and thus the pleural effusion was extracted several times. However, due to a severe difficulty in breathing caused by malignant pleural effusion, the patient breathed through an oxygen respiratory system in an emergency room and hospice medical ward. However, the patient began to develop pallor due to a lack of oxygen, and the patient, having about one week left to live, was orally administered with 5 mg of Example 1 three times a day (15 mg/day).
CT images of the patient before the administration of Example 1 and after 8, 13, 17 and 22 months of administration of Example 1 are shown in FIG. 6. Before the administration of Example 1, the airway was closed due to metastasis to the right lung and left lung, but after 8, 13, 17, and 22 months of administration, the sizes of the cancers in both of the lungs were decreased as the duration of administration increased.

[6] = test system: human breast cancer cells MCF-7; experiment: Induction of cell apoptosis by flow cytometry (Annexin V-FITC / PI); assay type: cell-based; details: MCF-7 cells, 0, 1, 3, 6, 9, 12 or 15 μM, 24 hours; with increase in treatment concentration
Experimental: as §1, §2
The effect of Example 1 on the induction of cell apoptosis was assessed by flow cytometry. The cells were dispensed at 1×10^5 cells/well in a 6-well culture dish, and incubated for 24 hours. After 24 hours, the cells contained in the MEM containing 10% FBS were treated with Example 1 at 0, 1, 3, 6, 9, 12 or 15 μM, and incubated for 24 hours. After 24 hours, the cells were treated using Annexin V-FITC kit to check cell apoptosis, and also treated with propidium iodide (PI) for distinguishment from natural cell death. […] The cells treated with the Annexin V-FITC kit were analyzed for the degree of cell apoptosis by using the BD FACS calibur flow cytometry system. […]

[7] = test system: human breast cancer cells MCF-7; experiment: Cell proliferation assay (MTT assay), MCF-7 cells; assay type: cell-based
Experimental: (§4) Fetal bovine serum (FBS) and cell culture medium were prepared (Hyclone), and dimethyl sulfoxide (DMSO) and 3-(4,5-dimetyl-thiazol-2yl)-2,5-diphenyltetrazolium bromide (MTT, Amresco LLC, USC) were prepared.
(§5) As human cancer cell lines, human breast cancer cells MCF-7 and SK-BR-3 were obtained from the Shanghai Cell Bank of Chinese Academy of Sciences. The MCF-7 cells were incubated in Minimum Essential Media (MEM) supplemented with 10% FBS, 100 U/ml penicillin, and 100 μg/ml streptomycin and the SK-BR-3 cells were incubated in Dulbecco's modified Eagle's medium (DMEM) supplemented with 10% FBS, 100 U/ml penicillin, and 100 μg/ml streptomycin in a humidified incubator with 5% CO2 and 95% air. The media were exchanged every three days.
(§6) The effects of Example 1 and Comparative Examples 1 to 3 on cell proliferation were assessed using MTT assay. MTT assay is based on the ability of viable cells against MTT to produce insoluble dark blue formazan products. After the cells were suspended in the medium by trypsin treatment and collected, the cells were dispensed at a density of 4×10^3 cells/well in a 96-well culture dish (Costar, Cambridge, Mass., USA). […] All the crystals were completely dissolved by standing at room temperature for 15 minutes, and the absorbance was measured using a micro-plate reader at a wavelength of 570 nm (A570 nm).
(§7) The absorbance value of the control group treated without the sample was calculated as 100, and the absorbance value of the treatment group treated with the sample, compared with that of the control group, was calibrated, and the percentage of inhibition of cell proliferation was calculated according to the following equation. Percentage (%) of inhibition of cell proliferation=((mean absorbance of control group cells−mean absorbance of treatment group cells)/mean absorbance of control group cells)×100
(§8) All data were expressed as mean±standard error of the mean (mean±SEM). […]

[8] = test system: caspase-3; experiment: RT-PCR mRNA expression of caspase-3 in MCF-7 cells; assay type: cell-based, human; details: 0-15 μM, 24 hours, with increase in concentration
Experimental: as §1, §2, §3

[9] = test system: human breast cancer cells SK-BR-3; experiment: Cell proliferation assay (MTT assay), SK-BR-3 cells; assay type: cell-based
Experimental: as §4, §5, §6, §7, §8

[10] = compared with Comparative Example 2 or 3 (Example 1 and Comparative Example 1 mixed at 4:1 or 1:1)

| Compound | mRNA expression of cyclin A2 [1] | mRNA expression of cyclin E1 [2] | percentage of inhibition of cancer cell metastasis [3] | spreading of the breast cancer cells to the lungs [3] | mRNA expression of p21 [4] | sizes of the cancers in both of the lungs (CT images) [5] | cell apoptosis (annexin V compared with PI) [6] | percentage of inhibition of MCF-7 cell proliferation [7, 10] | percentage of inhibition of MCF-7 cell proliferation ([7]; incubation 48 hours (FIG. 2A), compared with Comparative Example 1, 0-80 μM) | percentage of inhibition of MCF-7 cell proliferation ([7]; incubation 72 hours (FIG. 2B), compared with Comparative Example 1, 0-80 μM) | mRNA expression of caspase-3 [8] | percentage of inhibition of SK-BR-3 cell proliferation [9, 10] | percentage of inhibition of SK-BR-3 cell proliferation ([9]; incubation 48 hours (FIG. 3A), compared with Comparative Example 1, 0-80 μM) | percentage of inhibition of SK-BR-3 cell proliferation ([9]; incubation 72 hours (FIG. 3B), compared with Comparative Example 1, 0-80 μM) |
| --- | --- | --- | --- | --- | --- | --- | --- | --- | --- | --- | --- | --- | --- | --- |
| tetraarsenic hexoxide [Example 1] | decreased | increased | ≥ 90% | inhibited | increased | decreased | increased | higher | higher | higher | increased | higher | higher | higher |
| O1[As]2O[As]3O[As]1O[As](O2)O3 [Comparative Example 1, tetraarsenic hexoxide] | – | – | 50% | inhibited | – | – | – | – | – | – | – | – | – | – |
